Assay results as given in patent US4981854A, “A-aryl-4-quinolone-3-carboxylic acids” (Bayer Aktiengesellschaft, priority 1985, dated 1991).
In brackets after ≈: the same amount, converted by molar mass.

Experiments:
Assay in all cases: Minimum inhibitory concentration, agar dilution test (Denley Multipoint inoculator, Isosensitest medium)
Assay type in all cases: cell-based
Klebsiella pneum. 8085 = test system: Klebsiella pneum. 8085
Text: (§1) The MIC values of some of the compounds according to the invention are given in the following table. | Minimum inhibitory concentration mcg/ml^(x) | ^(x) Agar dilution test/Denley Multipoint inoculator Isosensitest | medium

Klebsiella spec. 6179 = test system: Klebsiella spec. 6179
Text: as §1

Staphylococcus aur. 133 = test system: Staphylococcus aur. 133
Text: as §1

[1] = test system: Streptococcus faecalis 27101; settings: Enterococcus faecalis
Text: as §1

E. coli 455/7 = settings: Escherichia coli
Text: as §1

E. coli 4418 = settings: Escherichia coli
Text: as §1

Staphylococcus aur. 1756 = test system: Staphylococcus aur. 1756
Text: as §1

Pseudomonas aerug. W. = test system: Pseudomonas aerug. W.
Text: as §1

E. coli Neum. = settings: Escherichia coli
Text: as §1

Klebsiella pneum. 63 = test system: Klebsiella pneum. 63
Text: as §1

Proteus vulg. 1017 = test system: Proteus vulg. 1017
Text: as §1

Row | Structure (SMILES) | MIC (Klebsiella pneum. 8085) [µg/mL] | MIC (Klebsiella spec. 6179) [µg/mL] | MIC (Staphylococcus aur. 133) [µg/mL] | MIC [1] [µg/mL] | MIC (E. coli 455/7) [µg/mL] | MIC (E. coli 4418) [µg/mL] | MIC (Staphylococcus aur. 1756) [µg/mL] | MIC (Pseudomonas aerug. W.) [µg/mL] | MIC (E. coli Neum.) [µg/mL] | MIC (Klebsiella pneum. 63) [µg/mL] | MIC (Proteus vulg. 1017) [µg/mL]
1 | CN1CCN(c2c(F)cc3c(=O)c(C(=O)O)cn(-c4ccc(F)cc4)c3c2F)CC1 [Example 1, 6,8-Difluoro-1,4-dihydro-4-oxo-1-(4-fluorophenyl)-7-(4-methyl-1-piperazinyl)-quinoline-3-carboxylic acid] | 0.125 (≈ 0.299 µM) | 0.5 (≈ 1.2 µM) | 0.5 (≈ 1.2 µM) | 4 (≈ 9.58 µM) | 16 (≈ 38.3 µM) | 0.25 (≈ 0.599 µM) | 0.5 (≈ 1.2 µM) | 8 (≈ 19.2 µM) | 0.125 (≈ 0.299 µM) | 0.25 (≈ 0.599 µM) | 0.5 (≈ 1.2 µM)
2 | CCn1cc(C(=O)O)c(=O)c2cc(F)c(N3CCNCC3)cc21 [Norfloxacin, reference compound] | 0.25 (≈ 0.783 µM) | 2 (≈ 6.26 µM) | 1 (≈ 3.13 µM) | 1 (≈ 3.13 µM) | 8 (≈ 25.1 µM) | 0.125 (≈ 0.391 µM) | 1 (≈ 3.13 µM) | 2 (≈ 6.26 µM) | 0.125 (≈ 0.391 µM) | 0.25 (≈ 0.783 µM) | 0.06 (≈ 0.188 µM)
3 | CC1CN(c2c(F)cc3c(=O)c(C(=O)O)cn(-c4ccc(F)cc4)c3c2F)CCN1 (centres unmarked) [Example 2, 6,8-Difluoro-1,4-dihydro-4-oxo-1-(4-fluorophenyl)-7-(3-methyl-1-piperazinyl)-quinoline-3-carboxylic acid] | 0.06 (≈ 0.144 µM) | 0.25 (≈ 0.599 µM) | 0.5 (≈ 1.2 µM) | 4 (≈ 9.58 µM) | 8 (≈ 19.2 µM) | 0.125 (≈ 0.299 µM) | 0.5 (≈ 1.2 µM) | 4 (≈ 9.58 µM) | ~0.015 (≈ 0.0359 µM) | 0.125 (≈ 0.299 µM) | 0.25 (≈ 0.599 µM)
4 | O=C(O)c1cn(-c2ccc(F)cc2)c2c(F)c(N3CCNCC3)c(F)cc2c1=O [Example 3, 6,8-Difluoro-1,4-dihydro-4-oxo-1-(4-fluorophenyl)-7-(1-piperazinyl)-quinoline-3-carboxylic acid] | ~0.015 (≈ 0.0372 µM) | 0.06 (≈ 0.149 µM) | 0.25 (≈ 0.62 µM) | 4 (≈ 9.92 µM) | 8 (≈ 19.8 µM) | 0.06 (≈ 0.149 µM) | 0.25 (≈ 0.62 µM) | 1 (≈ 2.48 µM) | ~0.015 (≈ 0.0372 µM) | 0.06 (≈ 0.149 µM) | 0.03 (≈ 0.0744 µM)
